Reference: patent US5109111A, “CRF antagonists” (The Salk Institute for Biological Studies, priority 1990, dated 1992)
Square brackets hold non-standard residues; d marks the D form. Peptide text beside a SMILES is read from it. hArg = N=C(N)NCCCC[C@H](N)C(=O)O; Nle = CCCC[C@H](N)C(=O)O; Orn = NCCC[C@H](N)C(=O)O; Nva = CCC[C@H](N)C(=O)O

test system: secretion of ACTH stimulated by oCRF in cultured rat pituitary cells; experiment: Blocking of oCRF-stimulated ACTH and β-endorphin secretion by cultured rat pituitary cells; assay type: cell-based; details: result in words
Experimental: The effectiveness of synthetic CRF antagonists to block the secretion of ACTH and β-endorphin by cultured rat pituitary cells is measured using the procedure as generally set forth in Vale et al., Endocrinology, 91, 562 (1972).

Question: Which “inhibition of the secretion of ACTH and β-END-LI” value (“inhibition” for short) does the source give for `CCCC[C@H](NC(=O)[C@H](Cc1ccc(O)cc1)NC(=O)[C@H](CCCCN)NC(=O)[C@H](CCCNC(=N)N)NC(=O)[C@H](CC(N)=O)NC(=O)[C@H](CC(C)C)NC(=O)CNC(=O)[C@H](C)NC(=O)[C@H](CCC(N)=O)NC(=O)[C@H](CCC(=O)O)NC(=O)[C@H](CCCNC(=N)N)NC(=O)[C@H](CCC(N)=O)NC(=O)[C@H](CC(N)=O)NC(=O)[C@H](CCC(=O)O)NC(=O)[C@H](CC(N)=O)NC(=O)[C@H](CCCNC(=N)N)NC(=O)[C@H](C)NC(=O)[C@H](CCSC)NC(=O)[C@H](CCC(=O)O)NC(=O)[C@@H](NC(=O)[C@H](CCSC)NC(=O)[C@H](CC(N)=O)NC(=O)[C@H](CCCNC(=N)N)NC(=O)[C@H](CC(C)C)NC(=O)[C@H](CC(C)C)NC(=O)[C@H](Cc1c[nH]cn1)NC(=O)[C@@H](N)Cc1ccccc1)[C@@H](C)CC)C(=O)N[C@@H](CC(=O)O)C(=O)N[C@@H](CCC(=O)O)C(=O)N[C@H](C(N)=O)C(C)C` [VI, [Nle^38]-Carp Urotensin I(12-41)] (H-FHLLRNMIEMARNENQREQAGLNRKY[Nle]DEV-NH2) here?
Answer: inhibits the secretion of ACTH and β-END-LI

Question: Which “inhibition” value does the source give for `CCCC[C@H](NC(=O)[C@H](CCC(=O)O)NC(=O)[C@@H](NC(=O)[C@H](CCCC)NC(=O)[C@H](CC(N)=O)NC(=O)[C@H](CCCNC(=N)N)NC(=O)[C@H](CC(C)C)NC(=O)[C@H](CC(C)C)NC(=O)[C@H](Cc1c[nH]cn1)NC(=O)[C@@H](N)Cc1ccccc1)[C@@H](C)CC)C(=O)N[C@@H](C)C(=O)N[C@@H](CCCNC(=N)N)C(=O)N[C@@H](CC(N)=O)C(=O)N[C@@H](CCC(=O)O)C(=O)N[C@@H](CC(N)=O)C(=O)N[C@@H](CCC(N)=O)C(=O)N[C@@H](CCCNC(=N)N)C(=O)N[C@@H](CCC(=O)O)C(=O)N[C@@H](CCC(N)=O)C(=O)N[C@@H](C)C(=O)NCC(=O)N[C@@H](CC(C)C)C(=O)N[C@@H](CC(N)=O)C(=O)N[C@@H](CCCNC(=N)N)C(=O)N[C@@H](CCCCN)C(=O)N[C@@H](Cc1ccc(O)cc1)C(=O)N[C@@H](CCCC)C(=O)N[C@@H](CC(=O)O)C(=O)N[C@@H](CCC(=O)O)C(=O)N[C@H](C(N)=O)C(C)C` [VIII, [Nle^18,21,38]-Carp Urotensin I(12-41)] (H-FHLLRN[Nle]IE[Nle]ARNENQREQAGLNRKY[Nle]DEV-NH2) here?
Answer: inhibits the secretion of ACTH and β-END-LI

Question: For `CCCC[C@H](NC(=O)[C@H](CC(C)C)NC(=O)[C@H](CCCCN)NC(=O)[C@H](CCCNC(=N)N)NC(=O)[C@H](CC(N)=O)NC(=O)[C@H](CO)NC(=O)[C@H](Cc1c[nH]cn1)NC(=O)[C@H](C)NC(=O)[C@H](CCC(N)=O)NC(=O)[C@H](CCC(N)=O)NC(=O)[C@H](C)NC(=O)[C@H](CC(C)C)NC(=O)[C@H](CCC(N)=O)NC(=O)[C@H](CCC(=O)O)NC(=O)[C@H](C)NC(=O)[C@H](CCCNC(=N)N)NC(=O)[C@H](C)NC(=O)[C@H](CCSC)NC(=O)[C@H](CCC(=O)O)NC(=O)CNC(=O)[C@@H](NC(=O)[C@H](CCC(=O)O)NC(=O)[C@H](CCCNC(=N)N)NC(=O)[C@H](CC(C)C)NC(=O)[C@H](CC(C)C)NC(=O)[C@H](Cc1c[nH]cn1)NC(=O)[C@H](Cc1ccccc1)NC(=O)[C@@H](NC(=O)[C@H](CC(C)C)NC(=O)[C@H](CC(=O)O)NC(C)=O)[C@@H](C)O)C(C)C)C(=O)N[C@@H](CC(=O)O)C(=O)N[C@@H](CCC)C(=O)N[C@H](C(N)=O)[C@@H](C)CC` [XIII, [Acetyl-Asp^9, Gly^19, Nle^38, Asp^39, Nva^40]-hCRF(9-41)] (Ac-DLTFHLLREVGEMARAEQLAQQAHSNRKL[Nle]D[Nva]I-NH2), which “inhibition” value is on record?
Answer: inhibits the secretion of ACTH and β-END-LI

Question: With `CCCC[C@H](NC(=O)[C@H](CCC(=O)O)NC(=O)[C@H](CC(C)C)NC(=O)[C@@H](NC(=O)[C@H](CCC(=O)O)NC(=O)[C@H](CCCNC(=N)N)NC(=O)[C@H](CC(C)C)NC(=O)[C@H](CC(C)C)NC(=O)[C@H](Cc1c[nH]cn1)NC(=O)[C@H](Cc1ccccc1)NC(=O)[C@@H](NC(=O)[C@@H](N)CC(C)C)[C@@H](C)O)C(C)C)C(=O)N[C@@H](C)C(=O)N[C@@H](CCCNC(=N)N)C(=O)NCC(=O)N[C@@H](CCC(=O)O)C(=O)N[C@@H](CCC(N)=O)C(=O)N[C@@H](CC(C)C)C(=O)N[C@@H](C)C(=O)N[C@@H](CCC(N)=O)C(=O)N[C@@H](CCC(N)=O)C(=O)N[C@@H](C)C(=O)N[C@@H](Cc1ccc(O)cc1)C(=O)N[C@@H](CO)C(=O)N[C@@H](CC(N)=O)C(=O)N[C@@H](CCCNC(=N)N)C(=O)N[C@@H](CCCN)C(=O)N[C@@H](CC(C)C)C(=O)N[C@@H](CCCC)C(=O)N[C@@H](CCC(=O)O)C(=O)N[C@H](C(=O)N[C@H](C(N)=O)[C@@H](C)CC)[C@@H](C)CC` [XV, [Nle^21,38, Gly^24, Tyr^32, Orn^36]-hCRF (10-41)] (H-LTFHLLREVLE[Nle]ARGEQLAQQAYSNR[Orn]L[Nle]EII-NH2) as the molecule, how does the “inhibition” value read?
Answer: inhibits the secretion of ACTH and β-END-LI

Question: `CCCC[C@H](NC(=O)[C@H](CC(C)C)NC(=O)[C@H](CC(C)C)NC(=O)[C@H](CCCNC(=N)N)NC(=O)[C@H](CC(N)=O)NC(=O)[C@H](CC(N)=O)NC(=O)[C@H](C)NC(=O)[C@H](C)NC(=O)[C@H](CCC(N)=O)NC(=O)[C@H](CCC(N)=O)NC(=O)[C@H](CCCCN)NC(=O)[C@H](CCC(=O)O)NC(=O)[C@H](CCCCN)NC(=O)[C@H](CCC(=O)O)NC(=O)[C@H](CCC(N)=O)NC(=O)[C@H](CCCCN)NC(=O)[C@H](C)NC(=O)[C@@H](NC(=O)[C@H](CCC(=O)O)NC(=O)[C@@H](NC(=O)[C@H](CCSC)NC(=O)[C@H](CCCCN)NC(=O)[C@H](CCCNC(=N)N)NC(=O)[C@H](CC(C)C)NC(=O)[C@H](CC(C)C)NC(=O)[C@H](CCC(=O)O)NC(=O)[C@H](CC(C)C)NC(=O)[C@@H](N)CO)[C@@H](C)CC)[C@@H](C)CC)C(=O)N[C@@H](CC(=O)O)C(=O)N[C@H](C(=O)N[C@@H](CCC(N)=O)C(N)=O)[C@@H](C)O` [XVI, [Ala^21, Nle^37, Gln^40]-sauvagine (10-40)] (H-SLELLRKMIEIAKQEKEKQQAANNRLL[Nle]DTQ-NH2) was tested. Which “inhibition” value did it give?
Answer: inhibits the secretion of ACTH and β-END-LI

Question: With `CCCC[C@H](NC(=O)[C@H](CC(C)C)NC(=O)[C@H](CC(C)C)NC(=O)[C@H](CCCNC(=N)N)NC(=O)[C@H](CC(N)=O)NC(=O)[C@H](CC(N)=O)NC(=O)[C@H](C)NC(=O)[C@H](C)NC(=O)[C@H](CCC(N)=O)NC(=O)[C@H](CCC(N)=O)NC(=O)[C@H](CCCCN)NC(=O)[C@H](CCC(=O)O)NC(=O)[C@H](CCCCN)NC(=O)[C@H](CCC(=O)O)NC(=O)[C@H](CCC(N)=O)NC(=O)[C@H](CCCCNC(=N)N)NC(=O)[C@H](CCC(=O)O)NC(=O)[C@H](C)NC(=O)[C@H](CCC(=O)O)NC(=O)[C@@H](NC(=O)[C@H](CCSC)NC(=O)[C@H](CCCCN)NC(=O)[C@H](CCCNC(=N)N)NC(=O)[C@H](CC(C)C)NC(=O)[C@H](CC(C)C)NC(=O)[C@H](CCC(=O)O)NC(=O)[C@@H](N)CC(C)C)[C@@H](C)CC)C(=O)N[C@@H](CC(=O)O)C(=O)N[C@@H](Cc1ccccc1)C(=O)N[C@H](C(N)=O)[C@@H](C)CC` [XVII, [Ala^20, Har^22, Nle^37, Phe^39]-sauvagine (11-40)] (H-LELLRKMIEAE[hArg]QEKEKQQAANNRLL[Nle]DFI-NH2) as the molecule, how does the “inhibition” value read?
Answer: inhibits the secretion of ACTH and β-END-LI

Question: Which “inhibition” value does the source give for `CCCC[C@H](NC(=O)[C@H](CC(C)C)NC(=O)[C@H](CC(C)C)NC(=O)[C@H](CCCNC(=N)N)NC(=O)[C@H](CC(N)=O)NC(=O)[C@H](CC(N)=O)NC(=O)[C@H](C)NC(=O)[C@H](C)NC(=O)[C@H](CCC(N)=O)NC(=O)[C@H](CCC(N)=O)NC(=O)[C@H](CCCCN)NC(=O)[C@@H](NC(=O)[C@H](CCCCN)NC(=O)[C@H](CCC(=O)O)NC(=O)[C@H](CCC(N)=O)NC(=O)[C@H](CCCCN)NC(=O)[C@H](CCC(=O)O)NC(=O)[C@@H](NC(=O)[C@H](CCC(=O)O)NC(=O)[C@@H](NC(=O)[C@H](CCSC)NC(=O)[C@H](CCCCN)NC(=O)[C@H](CCCNC(=N)N)NC(=O)[C@H](CC(C)C)NC(=O)[C@H](CC(C)C)NC(=O)[C@H](CCC(=O)O)NC(=O)[C@@H](N)CC(C)C)C(C)C)C(C)C)[C@@H](C)CC)C(=O)N[C@@H](CC(=O)O)C(=O)N[C@H](C(=O)NCC(N)=O)[C@@H](C)O` [XVIII, [Val^18,20, Ile^26, Nle^37, Gly^40]-sauvagine(11-40)] (H-LELLRKMVEVEKQEKIKQQAANNRLL[Nle]DTG-NH2) here?
Answer: inhibits the secretion of ACTH and β-END-LI

Question: How did the “inhibition” value turn out when `CCCC[C@H](NC(=O)[C@H](CCC(=O)O)NC(=O)[C@H](CC(C)C)NC(=O)[C@H](CCSC)NC(=O)[C@H](CCC(=O)O)NC(=O)[C@H](CCCNC(=N)N)NC(=O)[C@H](CC(C)C)NC(=O)[C@H](CC(C)C)NC(=O)[C@H](Cc1c[nH]cn1)NC(=O)[C@H](N)Cc1ccccc1)C(=O)N[C@@H](C)C(=O)N[C@@H](CCCCN)C(=O)N[C@@H](C)C(=O)N[C@@H](CCC(=O)O)C(=O)N[C@@H](CCC(N)=O)C(=O)N[C@@H](CCSC)C(=O)N[C@@H](C)C(=O)N[C@@H](CCC(=O)O)C(=O)N[C@@H](CCC(N)=O)C(=O)N[C@@H](C)C(=O)N[C@@H](C)C(=O)N[C@@H](CC(C)C)C(=O)N[C@@H](CC(N)=O)C(=O)N[C@@H](CCCNC(=N)N)C(=O)N[C@@H](CC(C)C)C(=O)N[C@@H](CC(C)C)C(=O)N[C@@H](CCCC)C(=O)N[C@@H](CCC(=O)O)C(=O)N[C@@H](CCC(=O)O)C(=O)N[C@@H](C)C(N)=O` [XXI, [D-Phe^12, Met^27, Nle^21,38]-AHC (12-41)] (H-[dF]HLLREMLE[Nle]AKAEQMAEQAALNRLL[Nle]EEA-NH2) was run?
Answer: inhibits the secretion of ACTH and β-END-LI
